Assay results from ChEMBL document CHEMBL4699652, “Proline Hinged Amphipathic α-Helical Peptide Sensitizes Gram-Negative Bacteria to Various Gram-Positive Antibiotics” (J Med Chem, 2020).
Calls of active or inactive are those of the source. The rule behind the calls is not given here.

Columns and labels:
Escherichia coli [1] = test: Induction of cell killing in Escherichia coli assessed as time needed for bacterial destruction at 128 ug/ml; type: functional; settings: dose 128 µg/ml
Cell membrane [2] = test: Induction of outer membrane re-arragenemnts in Escherichia coli ATCC 25922 incubated for 4 mins by NPN uptake assay; type: subcellular
Cell membrane [3] = test: Induction of outer membrane permeability in Escherichia coli assessed as periplasmic-beta-lactamase release at 5 uM using CENTA; type: subcellular
Cell membrane [4] = test: Induction of inner membrane permeability in Escherichia coli assessed as cytoplasmic beta-galactosidase release at 5 uM using ONPG
Cell membrane [5] = test: Induction of outer membrane re-arragenemnts in Escherichia coli D21f2 incubated for 4 mins by NPN uptake assay; type: subcellular
Cell membrane [6] = test: Induction of inner membrane permeability in Escherichia coli at 5 uM incubated for 1 hr by SYTOX Green-staining based flow cytometry analysis; type: subcellular
Staphylococcus aureus = test: Antimicrobial activity against Staphylococcus aureus ATCC 29213 assessed as inhibition of bacterial growth incubated for 18 hrs by CLSI based method; type: functional
Escherichia coli [7] = test: Antimicrobial activity against Escherichia coli ATCC 25922 assessed as inhibition of bacterial growth incubated for 18 hrs by CLSI based method; type: functional
Erythrocyte = test: Hemolytic activity in human red blood cells assessed as induction of hemoglobin release incubated for 4 hrs by microplate reader based assay; type: cell-based
Escherichia coli [8] = test: Binding affinity to inner membrane using POPE/POPG (7/3) by SPR assay
[9] = Induction of cell membrane permeability in POPE/POPG assessed as calcein leakage at 2 to 8 uM; settings: dose microM 2-8
Escherichia coli [10] = test: Binding affinity to cell membrane using POPC/cholesterol (8/2) by SPR assay
Escherichia coli [11] = test: Binding affinity to outer membrane in POPE/POPG lipid layers containing LPS by SPR assay
Escherichia coli [12] = test: Induction of cell lysis in Escherichia coli at 5 uM by transmission electron microscopy; type: functional, organism-based
Cell membrane [13] = test: Induction of cell membrane fluidity changes in Escherichia coli ATCC 25922 by Laurdan-dye based fluorescence assay; type: subcellular
Escherichia coli [14] = test: Antimicrobial activity against Escherichia coli ATCC 25922 assessed as reduction in cell viability at 10 to 10000 uM by propidium iodide staining based assay; type: functional, organism-based; settings: dose microM 10-10000
Cell membrane [15] = test: Induction of membrane permeability in Escherichia coli assessed as increase in fine surface roughness at 25 uM by atomic force microscopy; type: subcellular

Compound | Activity (Cell membrane [2]) | Activity (Cell membrane [3]) | Activity (Cell membrane [4]) | Activity (Cell membrane [5]) | Activity (Cell membrane [6]) | MIC (Staphylococcus aureus) [µM] | MIC (Escherichia coli [7]) [µM] | HC10 (Erythrocyte) [µM] | also measured
CC[C@H](C)[C@H](NC(=O)CN)C(=O)NCC(=O)N[C@@H](C)C(=O)N[C@H](C(=O)N[C@@H](CC(C)C)C(=O)N[C@@H](CCCCN)C(=O)N[C@H](C(=O)N[C@@H](CC(C)C)C(=O)N[C@H](C(=O)N[C@H](C(=O)NCC(=O)N[C@@H](CC(C)C)C(=O)N1CCC[C@H]1C(=O)N[C@@H](C)C(=O)N[C@@H](CC(C)C)C(=O)N[C@H](C(=O)N[C@@H](CO)C(=O)N[C@@H](Cc1c[nH]c2ccccc12)C(=O)N[C@H](C(=O)N[C@@H](CCCCN)C(=O)N[C@@H](CCCNC(=N)N)C(=O)N[C@@H](CCCCN)C(=O)N[C@@H](CCCNC(=N)N)C(=O)N[C@@H](CCC(N)=O)C(=O)N[C@@H](CCC(N)=O)C(N)=O)[C@@H](C)CC)[C@@H](C)CC)[C@@H](C)O)[C@@H](C)O)C(C)C)C(C)C [MELITTIN] | Active | inactive | inactive | inactive | inactive |  |  |  | Time (Escherichia coli [1]): 4 h
Ac-KLLKLLKKLLKLLK-NH2 |  |  |  |  |  | 10 | 20 | 0.625 | 
Ac-KLLKLLKKLLKLPK-NH2 |  |  |  |  |  | 10 | 10 | 40 | 
Ac-KLLKLLKKLLKPLK-NH2 |  |  |  |  |  | 10 | 20 | 40 | 
Ac-KLLKLLKKLPKLLK-NH2 |  |  |  |  |  | 40 | 40 | 80 | 
Ac-KLLKLLKPLLKLLK-NH2 |  |  |  |  |  | 2.5 | 10 | 2.5 | 
Ac-KLLKLLPKLLKLLK-NH2 |  |  |  |  |  | 5 | 10 | 5 | 
Ac-KLLKLPKKLLKLLK-NH2 | Active | inactive | inactive | inactive | inactive | > 80 | ≥ 80 | 640 | 
Ac-KLLKPLKKLLKLLK-NH2 |  |  |  |  |  | 20 | 20 | 80 | 
Ac-KLPKLLKKLLKLLK-NH2 |  |  |  |  |  | 10 | 10 | 10 | 
Ac-KPLKLLKKLLKLLK-NH2 |  |  |  |  |  | 5 | 5 | 5 | 
Ac-LKKLLKLLKKLLKL-NH2 |  |  |  |  |  | 10 | 10 | 5 | 
Ac-LKKLLKLLKKLPKL-NH2 | Active | inactive | inactive | inactive | inactive | 10 | 5 | 40 | Activity (Escherichia coli [8]): Active; Activity [9]: inactive; Activity (Escherichia coli [10]): inactive; Activity (Escherichia coli [11]): inactive; Activity (Escherichia coli [12]): Active
Ac-LKKLLKLLKPLLKL-NH2 |  |  |  |  |  | 2.5 | 5 | 5 | 
Ac-LKKLLKLLPKLLKL-NH2 | Active | inactive | inactive | inactive | inactive | 2.5 | 5 | 5 | Activity [9]: inactive; Activity (Escherichia coli [12]): Active
Ac-LKKLLKLPKKLLKL-NH2 | Active | inactive | inactive | inactive | inactive | > 80 | 40 | 640 | 
Ac-LKKLLKPLKKLLKL-NH2 |  |  |  |  |  | 20 | 20 | 160 | 
Ac-LKKLLPLLKKLLKL-NH2 |  |  |  |  |  | 2.5 | 10 | 1.25 | 
Ac-LKKLPKLSKKLLKL-NH2 |  |  |  |  |  | 10 | 2.5 | 80 | 
Ac-LKKPLKLGKKLLKL-NH2 |  |  |  |  |  | 40 | 5 | 160 | 
COLISTIN | Active | inactive | inactive | inactive | inactive |  |  |  | Activity (Cell membrane [13]): Active; Activity (Escherichia coli [14]): Active
H-KLAKLAKKPLKLAK-OH | Active | inactive | inactive | inactive | inactive |  |  |  | Activity (Cell membrane [15]): inactive
H-LKKLLKLLKKPLKL-NH2 | Active | inactive | inactive | inactive | inactive | 40 | 20 | 320 | 
